Literature values, collected in patent publication US9504728B2, “Dosage form” (priority 2011, dated 2016).
Read-outs that look alike come from different tables or passages of the source.

Tests used:
HBV = settings: Ptak et al. 2008; read-out: IC50 against HBV; cited from earlier work
HIV-1 = settings: Steyn et al., 2006, cited from earlier work

C/C=C/C[C@@H](C)[C@@H](O)[C@H]1C(=O)N[C@@H](CC)C(=O)N(C)[C@H](C)C(=O)N(CC)[C@@H](C(C)C)C(=O)N[C@@H](C(C)C)C(=O)N(C)[C@@H](CC(C)C)C(=O)N[C@@H](C)C(=O)N[C@H](C)C(=O)N(C)[C@@H](CC(C)C)C(=O)N(C)[C@@H](CC(C)C)C(=O)N(C)[C@@H](C(C)C)C(=O)N1C [DEBIO-025]
IC50 (HBV): 4.1 µM
reduction of HIV-1 RNA levels (HIV-1; in nine patients): ≥ 0.5 log 10 copies/mL
reduction of HIV-1 RNA levels (HIV-1; in two patients): > 1 log 10 copies/mL
